From patent US10487068B2, “Pyridazine derivatives as RORc modulators” (Genentech, Inc., priority 2015, dated 2019) come the findings set out here.

By IC50 is commonly meant the concentration at which inhibition is half-maximal. Low readings indicate inhibition by little substance, high ones a need for much substance.

The test addresses T1, RORc ligand binding domain (Homo sapiens, UniProt P51449).
T1 sequence (P51449 269-508 limits assumed): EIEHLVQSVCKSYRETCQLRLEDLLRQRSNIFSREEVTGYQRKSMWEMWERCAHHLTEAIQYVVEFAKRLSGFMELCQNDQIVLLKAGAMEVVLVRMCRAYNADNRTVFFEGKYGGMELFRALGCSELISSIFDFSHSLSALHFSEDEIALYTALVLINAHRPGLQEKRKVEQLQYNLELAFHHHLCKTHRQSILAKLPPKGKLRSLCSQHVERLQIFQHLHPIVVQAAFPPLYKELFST
Kind of test: In Vitro RORc Ligand Binding Assay. Conditions: RORc IC50, radioligand 25-[3H]hydroxycholesterol 6 nM; 0.6 ug/mL RORc receptor; 3 h at 25° C.

On to `CC1(C)[C@H]2CC[C@]1(c1cncc(Oc3cnccn3)n1)c1nnc(-c3c(F)cccc3F)cc12` [Example 422], for which the 50% inhibitory concentration (IC50) is 0.016 µM. Under `C[C@@H](O)c1nnc(-c2nccc([C@@]34CC[C@@H](c5cc(-c6c(F)cccc6F)nnc53)C4(C)C)n2)[nH]1` [Example 264] stands 0.0323 µM; under `CC1(C)[C@H]2CC[C@]1(c1cncc(-c3nc(C[C@H](O)CO)n[nH]3)n1)c1nnc(-c3c(F)cccc3F)cc12` [Example 293, (S)-3-(5-(6-((5R,8S)-3-(2,6-difluorophenyl)-9,9-dimethyl-5,6,7,8-tetrahydro-5,8-methanocinnolin-8-yl)pyrazin-2-yl)-1H-1,2,4-triazol-3-yl)propane-1,2-diol], 0.028 µM.

`CC1(C)[C@H]2CC[C@]1(c1ccnc(-n3cnc(C(N)=O)n3)n1)c1nnc(-c3c(F)cccc3F)cc12` [Example 232] showed an IC50 of 0.0279 µM.

Compound `C[C@H](CO)NC(=O)c1ccnc([C@@]23CC[C@@H](c4cc(-c5c(F)cccc5F)nnc42)C3(C)C)c1` [Example 67] showed an IC50 of 0.276 µM. This IC50 lies about 9.9-fold higher than the previous one. Next, `CC1(C)[C@H]2CC[C@]1(c1ccnc(N3CCNC(=O)C3)n1)c1nnc(-c3c(F)cccc3F)cc12` [Example 337]: 0.006 µM.

In turn, `C[C@H](O)Cc1n[nH]c(-c2cccc([C@@]34CC[C@@H](c5cc(-c6c(F)cccc6F)nnc53)C4(C)C)n2)n1` [Example 312, (S)-1-(5-(6-((5R,8S)-3-(2,6-difluorophenyl)-9,9-dimethyl-5,6,7,8-tetrahydro-5,8-methanocinnolin-8-yl)pyridin-2-yl)-1H-1,2,4-triazol-3-yl)propan-2-ol] came in with an IC50 of 0.0627 µM. Next, `CC1(C)[C@H]2CC[C@]1(c1cncc(-c3nc([C@@H](O)CO)n[nH]3)n1)c1nnc(-c3c(F)cccc3F)cc12` [Example 286, (R)-1-(5-(6-((5R,8S)-3-(2,6-difluorophenyl)-9,9-dimethyl-5,6,7,8-tetrahydro-5,8-methanocinnolin-8-yl)pyrazin-2-yl)-1H-1,2,4-triazol-3-yl)ethane-1,2-diol]: 0.0106 µM; `C[C@@H](O)CNC(=O)c1nccc([C@@]23CC[C@@H](c4cc(-c5c(F)cccc5F)nnc42)C3(C)C)n1` [Example 115]: 0.0632 µM; `CC1(C)[C@H]2CC[C@]1(c1cccc(C(=O)N3CCOCC3)n1)c1nnc(-c3c(F)cccc3F)cc12` [Example 37, (6-((5R,8S)-3-(2,6-difluorophenyl)-9,9-dimethyl-5,6,7,8-tetrahydro-5,8-methanocinnolin-8-yl)pyridin-2-yl)(morpholino)methanone]: 0.0482 µM. `Cc1cc(-c2ccnc([C@@]34CC[C@@H](c5cc(-c6c(F)cccc6F)nnc53)C4(C)C)n2)on1` [Example 241, 5-(2-((5R,8R)-3-(2,6-difluorophenyl)-9,9-dimethyl-5,6,7,8-tetrahydro-5,8-methanocinnolin-8-yl)pyrimidin-4-yl)-3-methylisoxazole] displayed an IC50 of 0.011 µM. Next, `C[C@H](O)CNC(=O)c1cccc([C@]23CC[C@H](c4cc(-c5c(F)cccc5F)nnc42)C3(C)C)n1` [Example 100, 6-((5S,8R)-3-(2,6-difluorophenyl)-9,9-dimethyl-5,6,7,8-tetrahydro-5,8-methanocinnolin-8-yl)-N-((S)-2-hydroxypropyl)picolinamide]: 0.0413 µM. Under `CC1(C)[C@H]2CC[C@]1(c1cncc(OCC(N)=O)n1)c1nnc(-c3c(F)cccc3F)cc12` [Example 315, 2-((6-((5R,8S)-3-(2,6-difluorophenyl)-9,9-dimethyl-5,6,7,8-tetrahydro-5,8-methanocinnolin-8-yl)pyrazin-2-yl)oxy)acetamide] stands 0.0941 µM; under `Cc1ncc(-c2ccnc([C@@]34CC[C@@H](c5cc(-c6c(F)cccc6F)nnc53)C4(C)C)c2)o1` [Example 175], 0.0134 µM. Next, `Cc1nc(CO)nn1-c1nccc([C@@]23CC[C@@H](c4cc(-c5c(F)cccc5F)nnc42)C3(C)C)n1` [Example 358]: 0.0604 µM; `CC1(C)[C@H]2CC[C@]1(c1cncc(-c3ccn[nH]3)n1)c1nnc(-c3c(F)cccc3F)cc12` [Example 246]: 0.0084 µM.

In turn, `CC(C)(O)c1ccn(-c2nccc([C@@]34CC[C@@H](c5cc(-c6c(F)cccc6F)nnc53)C4(C)C)n2)n1` [Example 290] returned an IC50 of 0.0335 µM. As to `CC1(C)[C@H]2CC[C@]1(c1cc(C#N)ncc1Br)c1nnc(-c3c(F)cccc3F)cc12` [Example 165, 5-bromo-4-((5R,8S)-3-(2,6-difluorophenyl)-9,9-dimethyl-5,6,7,8-tetrahydro-5,8-methanocinnolin-8-yl)picolinonitrile], the IC50 worked out at 0.0251 µM.

In the case of `CC1(C)[C@H]2CC[C@]1(c1nccc(-n3ccnc3)n1)c1nnc(-c3c(F)cccc3F)cc12` [Example 408, (5R,8R)-8-(4-(1H-imidazol-1-yl)pyrimidin-2-yl)-3-(2,6-difluorophenyl)-9,9-dimethyl-5,6,7,8-tetrahydro-5,8-methanocinnoline], the IC50 was determined as 0.011 µM. Next, `COC(=O)c1cnc([C@@]23CC[C@@H](c4cc(-c5c(F)cccc5F)nnc42)C3(C)C)cn1` [Example 10, methyl 5-((5R,8S)-3-(2,6-difluorophenyl)-9,9-dimethyl-5,6,7,8-tetrahydro-5,8-methanocinnolin-8-yl)pyrazine-2-carboxylate]: 0.389 µM. Next, `CC1(C)[C@H]2CC[C@]1(c1cccc(-c3cn[nH]c3)n1)c1nnc(-c3c(F)cccc3F)cc12` [Example 229]: 0.003 µM; `Cc1nnc(-c2cncc([C@@]34CC[C@@H](c5cc(-c6c(F)cccc6F)nnc53)C4(C)C)n2)o1` [Example 35, 2-(6-((5R,8S)-3-(2,6-difluorophenyl)-9,9-dimethyl-5,6,7,8-tetrahydro-5,8-methanocinnolin-8-yl)pyrazin-2-yl)-5-methyl-1,3,4-oxadiazole]: 0.0217 µM. Next, `CC1(C)[C@H]2CC[C@]1(c1cncc(-c3c[nH]c(=O)[nH]3)n1)c1nnc(-c3c(F)cccc3F)cc12` [Example 174, 4-(6-((5R,8S)-3-(2,6-difluorophenyl)-9,9-dimethyl-5,6,7,8-tetrahydro-5,8-methanocinnolin-8-yl)pyrazin-2-yl)-1H-imidazol-2(3H)-one]: 0.0085 µM; `CC1(C)[C@H]2CC[C@]1(c1ccnc(-c3ccn[nH]3)n1)c1nnc(-c3c(F)cccc3F)cc12` [Example 251]: 0.0098 µM. `CC(C)S(=O)(=O)Nc1cccc([C@@]23CC[C@@H](c4cc(-c5c(F)cccc5F)nnc42)C3(C)C)n1` [Example 156, N-(6-((5R,8S)-3-(2,6-difluorophenyl)-9,9-dimethyl-5,6,7,8-tetrahydro-5,8-methanocinnolin-8-yl)pyridin-2-yl)propane-2-sulfonamide] returned a half-maximal inhibitory concentration (IC50) of 0.0306 µM. Under `CNC(=O)c1cncc([C@@]23CC[C@@H](c4cc(-c5c(F)cccc5F)nnc42)C3(C)C)n1` [Example 27, 6-((5R,8S)-3-(2,6-difluorophenyl)-9,9-dimethyl-5,6,7,8-tetrahydro-5,8-methanocinnolin-8-yl)-N-methylpyrazine-2-carboxamide] stands 0.0264 µM; under `CN(C)C(=O)c1cccc([C@@]23CC[C@@H](c4cc(-c5c(F)cccc5F)nnc42)C3(C)C)n1` [Example 18, 6-((5R,8S)-3-(2,6-difluorophenyl)-9,9-dimethyl-5,6,7,8-tetrahydro-5,8-methanocinnolin-8-yl)-N,N-dimethylpicolinamide], 0.0357 µM; under `Cc1nnc(-c2ccnc([C@@]34CC[C@@H](c5cc(-c6c(F)cccc6F)nnc53)C4(C)C)n2)[nH]1` [Example 171, (5R,8R)-3-(2,6-difluorophenyl)-9,9-dimethyl-8-(4-(5-methyl-4H-1,2,4-triazol-3-yl)pyrimidin-2-yl)-5,6,7,8-tetrahydro-5,8-methanocinnoline], 0.0366 µM. Under `CC1(C)[C@H]2CC[C@]1(c1ccnc(C#N)c1C#N)c1nnc(-c3c(F)cccc3F)cc12` [Example 192, 4-((5R,8S)-3-(2,6-difluorophenyl)-9,9-dimethyl-5,6,7,8-tetrahydro-5,8-methanocinnolin-8-yl)pyridine-2,3-dicarbonitrile] stands 0.124 µM. For the compound `CC1(C)[C@H]2CC[C@]1(c1cc(-c3c[nH]c(=O)[nH]3)ccn1)c1nnc(-c3c(F)cccc3F)cc12` [Example 244], the IC50 was found to be 0.12 µM. Next, `CC1(C)[C@H]2CC[C@]1(c1ccnc(N3C[C@H](O)[C@@H](O)C3)n1)c1nnc(-c3c(F)cccc3F)cc12` [Example 152]: 0.174 µM; `CC(C)(O)c1ncc(-c2cncc([C@@]34CC[C@@H](c5cc(-c6c(F)cccc6F)nnc53)C4(C)C)n2)cn1` [Example 394, 2-(5-(6-((5R,8S)-3-(2,6-difluorophenyl)-9,9-dimethyl-5,6,7,8-tetrahydro-5,8-methanocinnolin-8-yl)pyrazin-2-yl)pyrimidin-2-yl)propan-2-ol]: 0.0091 µM.

As to `CC1(C)[C@H]2CC[C@]1(c1cncc(-c3nc([C@H](O)C(F)(F)F)n[nH]3)n1)c1nnc(-c3c(F)cccc3F)cc12` [Example 309, (S)-1-(5-(6-((5R,8S)-3-(2,6-difluorophenyl)-9,9-dimethyl-5,6,7,8-tetrahydro-5,8-methanocinnolin-8-yl)pyrazin-2-yl)-1H-1,2,4-triazol-3-yl)-2,2,2-trifluoroethanol], the half-inhibitory concentration (IC50) was 0.0884 µM. The compound `Cc1cc(-c2ccnc([C@@]34CC[C@@H](c5cc(-c6c(F)cccc6F)nnc53)C4(C)C)n2)no1` [Example 266, 3-(2-((5R,8R)-3-(2,6-difluorophenyl)-9,9-dimethyl-5,6,7,8-tetrahydro-5,8-methanocinnolin-8-yl)pyrimidin-4-yl)-5-methylisoxazole] showed an IC50 of 0.0043 µM. This IC50 is about 21-fold lower than that of the compound before. Under `CC1(C)[C@H]2CC[C@]1(c1cncc(-c3nc(CS(C)(=O)=O)n[nH]3)n1)c1nnc(-c3c(F)cccc3F)cc12` [Example 294] stands 0.0233 µM.
